Measured values from US12433510B2, “Methods and systems for improved collection of interstitial fluid” (Georgia Tech Research Corporation, priority 2017, dated 2025).
Where two headings read alike, the source gives them in different places. Values belong to the compound of their own block, whether it stands above or below them.

Assays:
in vivo = conditions: female, Wistar, rat, 1 mg/kg; for AUC: mean ± SD, n = 6 rats
[1] = human, in vivo
clinical = conditions: human, in vivo
[2] = iv, ISF, 1 mg/kg bolus intravenous
[3] = iv, Serum, 1 mg/kg bolus intravenous

Structure (SMILES): CN[C@H](CC(C)C)C(=O)N[C@H]1C(=O)N[C@@H](CC(N)=O)C(=O)N[C@H]2C(=O)N[C@H]3C(=O)N[C@H](C(=O)N[C@H](C(=O)O)c4cc(O)cc(O)c4-c4cc3ccc4O)[C@H](O)c3ccc(c(Cl)c3)Oc3cc2cc(c3O[C@@H]2O[C@H](CO)[C@@H](O)[C@H](O)[C@H]2O[C@H]2C[C@](C)(N)[C@H](O)[C@H](C)O2)Oc2ccc(cc2Cl)[C@H]1O [vancomycin]
Tmax Ratio (ISF:serum) (1 mg/kg bolus intravenous): 2.7 ± 1.6 | slope of linear correlation of paired ISF and serum drug levels (R2=0.40): 0.75±0.06 | Tmax (in vivo; delay in time to peak concentration (Tmax) in ISF compared to serum): ~17 min | Kp (in vivo; iv, AUC Ratio (ISF:serum), 1 mg/kg bolus intravenous): 1.3 ± 0.2 | AUC (in vivo; [2]): 2300 ng·h/mL | AUC (in vivo; [3]): 1770 ng·h/mL | Kp (in vivo; iv, Cmax Ratio (ISF:serum), 1 mg/kg bolus intravenous): 0.9 ± 0.2 | Cmax (in vivo; [2]): 2500 ± 1000 ng/mL | Cmax (in vivo; [3]): 2600 ± 600 ng/mL | Tmax (in vivo; iv, Tmax, ISF, 1 mg/kg bolus intravenous): 26.6 min | Tmax (in vivo; iv, Tmax, Serum, 1 mg/kg bolus intravenous): 10 min

Structure (SMILES): CCN=c1cc2oc3cc(NCC)c(C)cc3c(-c3ccccc3C(=O)OCC)c-2cc1C.Cl [R6G, rhodamine 6G]
R6G concentration in protein-free serum samples (plasma proteins): 0.05 ± 0.03 µM | R6G concentration in serum prior to filtration (plasma proteins): 9.6 ± 4.2 µM | binding to plasma proteins (plasma proteins): strongly binds to plasma proteins

CL [1]: 4.7 L/h | t1/2 [1]: 450 min | Cmax ([1]; 43 mg): 1030 ng/mL | Cmax (clinical; 43 mg, Cmax): 1060 ng/mL | AUC(0-t) (clinical; AUC(0-8 h)): 84 ng·h/mL | clearance (clinical; CL): 68.3 mL/min | half-life (clinical; t1/2): 564 min
Structure (SMILES): Cn1c(=O)c2c(ncn2C)n(C)c1=O [caffeine]
